Test results: patent US9702824B2, “pH sensors” (PROMEGA CORPORATION, priority 2012, dated 2017)

Experiments:
U2OS cells = test: Toxicity, CELLTITER-GLO Luminescent Cell Viability Assay (Example 3); type: cell-based; settings: 0 nM to 20 uM, 24 hour
Description: The toxicity of dyes PBI-4479 and PBI-4453 was tested in U2OS cells. The cells were plated at 20,000 cells/well in McCoy's 5A media+10% FBS into wells of a 96-well plate. The compounds were then serially diluted 2-fold in McCoy's 5A+10% FBS to a 10× working solution. 10 ul of the working solution was added to the cells to a final concentration of 0 nM to 20 uM. The treated cells were then incubated overnight at 37° C., 5% CO2. Toxicity was tested using Promega's CELLTITER-GLO Luminescent Cell Viability Assay according to the manufacturer's protocol. No toxicity was seen across varying concentrations of the compounds over the 24 hour period (SEE FIG. 9).

[1] = Stability in DMSO by fluorescent emission intensity; type: physicochemical; settings: for Emission intensity, Ave: average of days 0-110; for Emission intensity: shielded from light, 562 nm, pH 4.0
Description: PBI-4479 was dissolved to 2 mM in DMSO to approximately 2.33 mg/mL. Aliquots of 350 uL from the 2 mM solution were stored shielded from light at −20° C., 4° C. and room temperature. Stability was established by measuring fluorescent emission intensity and by testing HPLC purity at time 0, 1 day, 1 week, 1 month, 4 months, and 6 months from when the solutions were prepared and stored. For the fluorescence measurements, each aliquot was diluted (1 uL) into 4 mL of 0.1M sodium phosphate pH 4.0 directly into a 4.5 mL plastic cuvette and mixed by inversion of the vial. The maximum emission peak at 562 nm was acquired using a HoribaJobinYvon fluorometer using an excitation of 532 nm with 1.5 nm slit width. For HPLC measurements, each aliquot was diluted to 1 mM in 0.1M sodium phosphate pH 4.0, and 2 uL tested. The purity of each aliquot was tested using an Agilent 1100 liquid chromatography system equipped with a quaternary pump and a diode-array detector. The diode-array detector was set at 254 nm and 532 nm. The elution was performed using a mobile phase (A) containing 0.1% TFA in water, and a mobile phase (B) containing HPLC grade acetonitrile. A Phenomenex Synergi MAX-RP column (50×4.6 mm; 2.6 μm) was used to perform the chromatography. The HPLC was performed as follows: a gradient ran 3% to 60% mobile phase (B) to 3.60 minutes, a hold at 60% mobile phase (B) for 1 minute, a ramp up to 100% mobile phase (B) to 6 minutes, another hold at 100% mobile phase (B) for 2 minutes, and then back to 3% mobile phase (B) for 1.5 minutes. The column was given 2.5 minutes to re-equilibrate back to the starting conditions. In these conditions, the product elutes at approximately 3.7 minutes. Purity (as area percent) of the product was reported at 254 nm and 532 nm.

## O=C(NCCOCCOCCOCCOCCOCCOCCCCCCCl)c1ccc(C(=O)[O-])c(-c2c3ccc(=[N+]4CCN(CCCCS(=O)(=O)O)CC4)cc-3oc3cc(N4CCN(CCCCS(=O)(=O)O)CC4)ccc23)c1 [PBI-4479]
U2OS cells
  toxicity (cell viability): No toxicity
[1]; 2 mM DMSO solution stored at room temperature
  degradation by fluorescence intensity: slight degradation
[1]; 2 mM in DMSO, 4° C.
  Emission intensity, Ave: 2096856.0
[1]; 2 mM in DMSO, RT
  Emission intensity, Ave: 2193684.0
[1]; 2 mM in DMSO, 4° C., 0 days
  Emission intensity: 2109020
[1]; 2 mM in DMSO, 4° C., 1 day
  Emission intensity: 2203160
[1]; 2 mM in DMSO, 4° C., 7 days
  Emission intensity: 2055280
[1]; 2 mM in DMSO, 4° C., 30 days
  Emission intensity: 2076310
[1]; 2 mM in DMSO, 4° C., 110 days
  Emission intensity: 2040510
[1]; 2 mM in DMSO, RT, 0 days
  Emission intensity: 2109020
[1]; 2 mM in DMSO, RT, 1 day
  Emission intensity: 2641010
[1]; 2 mM in DMSO, RT, 7 days
  Emission intensity: 2092940
[1]; 2 mM in DMSO, RT, 30 days
  Emission intensity: 2158320
[1]; 2 mM in DMSO, RT, 110 days
  Emission intensity: 1967130
[1]; 2 mM in DMSO, −20° C., 0 days
  Emission intensity: 2109020
[1]; 2 mM in DMSO, −20° C., 1 day
  Emission intensity: 2336260
[1]; 2 mM in DMSO, −20° C., 7 days
  Emission intensity: 2006990
[1]; 2 mM in DMSO, −20° C., 30 days
  Emission intensity: 2191770
[1]; 2 mM in DMSO, −20° C., 110 days
  Emission intensity: 1926570
[1]; 2 mM in DMSO, stored below room temperature, by emission intensity and HPLC purity
  time stable: at least 180 days
[1]; 2 mM in DMSO, −20° C.
  Emission intensity, Ave: 2114122.0
